According to ChEMBL document CHEMBL5291721, “A preclinical secondary pharmacology resource illuminates target-adverse drug reaction associations of marketed drugs” (Nat Commun, 2023):

Assays:
[1] = target: T1, Peroxisome proliferator-activated receptor gamma (Homo sapiens, UniProt P37231); assay type: functional
T1 sequence (P37231 whole entry): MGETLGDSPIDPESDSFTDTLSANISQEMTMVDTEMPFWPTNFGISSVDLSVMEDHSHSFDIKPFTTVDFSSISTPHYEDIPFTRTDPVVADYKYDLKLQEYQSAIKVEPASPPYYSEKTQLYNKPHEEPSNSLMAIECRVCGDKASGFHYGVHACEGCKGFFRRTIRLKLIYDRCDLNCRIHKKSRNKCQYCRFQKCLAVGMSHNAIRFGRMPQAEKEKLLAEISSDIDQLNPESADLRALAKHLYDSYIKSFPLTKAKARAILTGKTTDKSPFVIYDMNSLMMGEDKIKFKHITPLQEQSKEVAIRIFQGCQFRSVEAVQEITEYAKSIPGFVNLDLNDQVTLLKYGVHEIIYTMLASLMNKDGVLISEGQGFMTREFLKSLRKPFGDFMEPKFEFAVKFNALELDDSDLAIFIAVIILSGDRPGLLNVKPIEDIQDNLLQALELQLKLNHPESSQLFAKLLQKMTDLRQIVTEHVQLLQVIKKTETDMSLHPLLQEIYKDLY

[2] = target: T2, Muscarinic acetylcholine receptor M2 (Homo sapiens, UniProt P08172)
T2 sequence (P08172 whole entry): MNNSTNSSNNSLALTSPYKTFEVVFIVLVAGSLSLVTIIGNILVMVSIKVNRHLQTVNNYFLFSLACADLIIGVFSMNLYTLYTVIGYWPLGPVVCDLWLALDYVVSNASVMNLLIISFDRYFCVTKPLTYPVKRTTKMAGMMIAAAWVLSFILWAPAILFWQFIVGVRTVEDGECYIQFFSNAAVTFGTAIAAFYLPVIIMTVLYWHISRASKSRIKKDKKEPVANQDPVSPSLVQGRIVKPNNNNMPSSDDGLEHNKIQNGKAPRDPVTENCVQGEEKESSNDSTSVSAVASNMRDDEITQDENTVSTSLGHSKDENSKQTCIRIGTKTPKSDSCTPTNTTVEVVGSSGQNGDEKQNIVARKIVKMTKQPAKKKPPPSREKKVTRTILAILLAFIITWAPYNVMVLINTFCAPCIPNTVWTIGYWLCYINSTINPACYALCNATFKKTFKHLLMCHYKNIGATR

Glucocorticoid receptor = target: T3, Glucocorticoid receptor (Homo sapiens, UniProt P04150)
T3 sequence (P04150 whole entry): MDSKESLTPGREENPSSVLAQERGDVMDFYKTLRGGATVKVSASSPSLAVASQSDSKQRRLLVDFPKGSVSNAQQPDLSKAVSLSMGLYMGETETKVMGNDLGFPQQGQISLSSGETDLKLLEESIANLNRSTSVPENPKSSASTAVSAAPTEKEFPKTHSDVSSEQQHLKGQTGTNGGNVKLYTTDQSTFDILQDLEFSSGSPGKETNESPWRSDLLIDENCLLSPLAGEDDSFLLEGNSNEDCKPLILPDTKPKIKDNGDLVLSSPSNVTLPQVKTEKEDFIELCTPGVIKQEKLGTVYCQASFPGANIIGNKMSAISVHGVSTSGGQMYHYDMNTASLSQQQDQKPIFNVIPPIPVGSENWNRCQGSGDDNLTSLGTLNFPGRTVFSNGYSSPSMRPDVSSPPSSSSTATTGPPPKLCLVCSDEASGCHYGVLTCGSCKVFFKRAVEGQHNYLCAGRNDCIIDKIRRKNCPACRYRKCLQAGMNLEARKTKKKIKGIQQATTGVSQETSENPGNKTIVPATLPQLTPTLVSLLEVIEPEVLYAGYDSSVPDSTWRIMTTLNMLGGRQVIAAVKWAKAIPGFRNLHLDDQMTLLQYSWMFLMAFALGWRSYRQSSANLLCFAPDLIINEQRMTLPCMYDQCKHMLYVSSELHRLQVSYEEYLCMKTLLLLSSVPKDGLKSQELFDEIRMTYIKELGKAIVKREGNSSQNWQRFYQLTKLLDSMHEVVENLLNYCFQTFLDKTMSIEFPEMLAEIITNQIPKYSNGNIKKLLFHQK

[3] = target: T4, Alpha-1A adrenergic receptor (Homo sapiens, UniProt P35348)
T4 sequence (P35348 whole entry): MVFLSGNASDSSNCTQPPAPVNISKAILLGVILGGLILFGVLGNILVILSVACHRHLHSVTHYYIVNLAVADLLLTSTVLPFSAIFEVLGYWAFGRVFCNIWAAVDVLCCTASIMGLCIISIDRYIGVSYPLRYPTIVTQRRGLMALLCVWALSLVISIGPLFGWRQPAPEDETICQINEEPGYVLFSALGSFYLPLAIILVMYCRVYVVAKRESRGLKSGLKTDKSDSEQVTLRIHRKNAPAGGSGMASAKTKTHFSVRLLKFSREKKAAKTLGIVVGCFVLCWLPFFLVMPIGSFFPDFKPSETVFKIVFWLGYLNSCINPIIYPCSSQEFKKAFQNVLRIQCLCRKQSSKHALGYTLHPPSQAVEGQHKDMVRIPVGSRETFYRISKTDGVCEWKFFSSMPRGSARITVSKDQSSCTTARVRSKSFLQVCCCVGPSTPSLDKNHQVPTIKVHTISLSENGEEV

[4] = target: T5, 5-hydroxytryptamine receptor 1A (Homo sapiens, UniProt P08908)
T5 sequence (P08908 whole entry): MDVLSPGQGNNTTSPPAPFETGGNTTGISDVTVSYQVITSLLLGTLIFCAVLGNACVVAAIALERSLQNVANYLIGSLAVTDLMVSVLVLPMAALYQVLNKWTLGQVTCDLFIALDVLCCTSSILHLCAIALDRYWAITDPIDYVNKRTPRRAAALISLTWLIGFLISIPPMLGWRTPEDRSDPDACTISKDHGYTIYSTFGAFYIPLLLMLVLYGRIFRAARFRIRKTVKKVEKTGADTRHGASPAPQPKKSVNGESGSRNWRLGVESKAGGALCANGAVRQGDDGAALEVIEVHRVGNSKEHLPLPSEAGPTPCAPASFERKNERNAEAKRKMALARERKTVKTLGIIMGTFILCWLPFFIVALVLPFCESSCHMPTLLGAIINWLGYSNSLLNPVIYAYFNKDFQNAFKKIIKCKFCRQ

[5] = target: Beta-3 adrenergic receptor (Homo sapiens, UniProt P13945)
Chain of Beta-3 adrenergic receptor (P13945 whole entry): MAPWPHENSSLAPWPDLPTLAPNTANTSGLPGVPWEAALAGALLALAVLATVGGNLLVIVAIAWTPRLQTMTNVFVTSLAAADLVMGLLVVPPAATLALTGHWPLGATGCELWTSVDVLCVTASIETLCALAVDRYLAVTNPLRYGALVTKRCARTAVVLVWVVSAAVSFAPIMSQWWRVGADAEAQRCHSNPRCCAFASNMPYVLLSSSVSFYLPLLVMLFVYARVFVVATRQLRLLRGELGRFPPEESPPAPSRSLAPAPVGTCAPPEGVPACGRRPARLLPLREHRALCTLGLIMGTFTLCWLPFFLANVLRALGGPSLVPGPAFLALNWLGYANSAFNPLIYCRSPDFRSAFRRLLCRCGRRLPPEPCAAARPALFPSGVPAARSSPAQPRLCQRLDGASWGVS

[6] = target: 5-hydroxytryptamine receptor 2A (Homo sapiens, UniProt P28223); assay type: functional, cell-based
Chain of 5-hydroxytryptamine receptor 2A (P28223 whole entry): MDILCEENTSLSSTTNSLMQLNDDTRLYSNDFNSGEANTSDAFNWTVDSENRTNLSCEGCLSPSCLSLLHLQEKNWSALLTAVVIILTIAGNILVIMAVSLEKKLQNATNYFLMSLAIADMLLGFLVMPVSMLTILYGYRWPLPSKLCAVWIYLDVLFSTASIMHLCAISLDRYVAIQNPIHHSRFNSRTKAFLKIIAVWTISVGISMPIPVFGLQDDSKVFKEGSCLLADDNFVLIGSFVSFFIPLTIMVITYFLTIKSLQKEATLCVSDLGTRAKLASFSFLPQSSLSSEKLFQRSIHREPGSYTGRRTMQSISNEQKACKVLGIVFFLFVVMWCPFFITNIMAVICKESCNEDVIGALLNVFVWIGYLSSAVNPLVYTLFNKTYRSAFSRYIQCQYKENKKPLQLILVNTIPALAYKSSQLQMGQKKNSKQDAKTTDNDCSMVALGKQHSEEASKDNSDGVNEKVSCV
Further: assay procedure not described here.

Row | Compound | AC50 [1] [µM] | AC50 [2] [µM] | AC50 (Glucocorticoid receptor) [µM] | AC50 [3] [µM] | AC50 [4] [µM] | AC50 [5] [µM] | AC50 [6] [µM]
1 | CCOc1nc2cccc(C(=O)O)c2n1Cc1ccc(-c2ccccc2-c2nnn[nH]2)cc1 | > 30 | > 10 | > 30 | > 10 | > 10 | > 30 | 
2 | CCCc1nc2c(C)cc(-c3nc4ccccc4n3C)cc2n1Cc1ccc(-c2ccccc2C(=O)O)cc1 | > 30 | > 10 | > 30 | > 10 | > 10 | > 30 | 
3 | CCOc1cc([C@@H](CS(C)(=O)=O)N2C(=O)c3cccc(NC(C)=O)c3C2=O)ccc1OC | > 30 |  |  |  |  |  | > 30
4 | CC(=O)Nc1ccc(CC(=O)O)cc1 [ACTARIT] |  |  | > 30 |  |  |  | > 30
5 | CC(C(=O)O)c1ccc2oc(-c3ccc(Cl)cc3)nc2c1 (stereo unspecified) [BENOXAPROFEN] |  |  | > 30 |  |  |  | 
6 | CC1(C)S[C@@H]2[C@H](NC(=O)C(C(=O)O)c3ccccc3)C(=O)N2[C@H]1C(=O)O (stereo partly specified) [CARBENICILLIN] | > 30 |  | > 30 |  |  |  | > 30
7 | Cc1nnc(SCC2=C(C(=O)O)N3C(=O)[C@@H](NC(=O)Cn4cnnn4)[C@H]3SC2)s1 [CEFAZOLIN] | > 300 |  |  |  |  |  | > 300
8 | CC=CC1=C(C(=O)O)N2C(=O)[C@@H](NC(=O)[C@H](N)c3ccc(O)cc3)[C@H]2SC1 [CEFPROZIL] |  |  | > 30 |  |  |  | > 30
9 | CC(C)(O/N=C(\C(=O)N[C@@H]1C(=O)N2C(C(=O)[O-])=C(C[n+]3ccccc3)CS[C@H]12)c1csc(N)n1)C(=O)O [CEFTAZIDIME] | > 300 |  | > 30 |  |  |  | > 300
10 | CC(C)NC(=N)NC(=N)Nc1ccc(Cl)c(Cl)c1 [CHLORPROGUANIL] |  |  |  |  |  |  | > 30
11 | CCCNC(=O)NS(=O)(=O)c1ccc(Cl)cc1 [CHLORPROPAMIDE] |  |  | > 30 |  | > 10 | > 30 | 
12 | C[N+](C)(C)CCOP(=O)(O)OP(=O)([O-])OC[C@H]1O[C@@H](n2ccc(N)nc2=O)[C@H](O)[C@@H]1O [CITICOLINE] |  |  |  |  |  |  | > 30
13 | Clc1ccc(Cn2c(CN3CCCC3)nc3ccccc32)cc1 [CLEMIZOLE] | > 30 |  |  |  |  |  | > 30
14 | CCC(=O)O[C@]1(C(=O)CCl)[C@@H](C)C[C@H]2[C@@H]3CCC4=CC(=O)C=C[C@]4(C)[C@@]3(F)[C@@H](O)C[C@@]21C [CLOBETASOL PROPIONATE] | > 30 |  | 0.0078 |  |  |  | 
15 | Cc1nc(Nc2ncc(C(=O)Nc3c(C)cccc3Cl)s2)cc(N2CCN(CCO)CC2)n1 [DASATINIB] |  | > 10 |  | > 10 | 21.9 |  | 
16 | O=C(O)Cc1ccccc1Nc1c(Cl)cccc1Cl [DICLOFENAC] |  | > 10 |  | > 10 | > 10 | > 30 | 
17 | CNC[C@H](O)c1ccc(O)c(O)c1 [EPINEPHRINE] | > 30 |  |  |  |  |  | 
18 | O=C(O)Cc1ccccc1Oc1ccc(Cl)cc1Cl [FENCLOFENAC] |  | > 10 | > 30 | > 10 | > 10 | > 30 | 

Row | Compound | AC50 [1] [µM] | AC50 [2] [µM] | AC50 (Glucocorticoid receptor) [µM] | AC50 [3] [µM] | AC50 [4] [µM] | AC50 [5] [µM] | AC50 [6] [µM]
19 | Cc1onc(-c2c(F)cccc2Cl)c1C(=O)N[C@@H]1C(=O)N2[C@@H]1SC(C)(C)[C@@H]2C(=O)O [FLOXACILLIN] | > 30 |  |  |  |  |  | > 30
20 | Cc1ccc(C)c(OCCCC(C)(C)C(=O)O)c1 [GEMFIBROZIL] |  | > 10 |  | > 10 | > 10 | > 30 | 
21 | COc1ccccc1OC1(C)OC(=O)c2ccccc2O1 (stereo unspecified) [GUAIMESAL] |  |  | > 30 |  |  |  | 
22 | CCCCCCCN(CC)CCCC(O)c1ccc(NS(C)(=O)=O)cc1 (stereo unspecified) [IBUTILIDE] |  |  | > 30 |  |  |  | > 30
23 | COc1cc(C(C)=O)ccc1OCCCN1CCC(c2noc3cc(F)ccc23)CC1 [ILOPERIDONE] | > 30 |  |  | 0.0018 | 0.0785 |  | 
24 | CC[C@H](C)C(=O)O[C@H]1C[C@@H](C)C=C2C=C[C@H](C)[C@H](CC[C@@H]3C[C@@H](O)CC(=O)O3)[C@H]21 [LOVASTATIN] |  | > 10 | > 30 | > 10 | > 10 | 11.6 | 
25 | CC[C@@H](CO)NC(=O)[C@@H]1C=C2c3cccc4c3c(cn4C)C[C@H]2N(C)C1 [METHYSERGIDE] |  | > 10 |  |  | 0.192 | > 30 | 
26 | CNC(=C[N+](=O)[O-])NCCSCc1csc(CN(C)C)n1 [NIZATIDINE] |  |  | > 10 |  |  |  | 
27 | CN1Cc2c(N)cccc2C(c2ccccc2)C1 (stereo unspecified) [NOMIFENSINE] |  |  | > 30 |  |  |  | > 30
28 | CC(CN1c2ccccc2Sc2ccccc21)N(C)C (stereo unspecified) [PROMETHAZINE] |  | 0.161 |  | 0.162 | 6.7 | > 30 | 
29 | Cn1cc(C(=O)[C@@H]2CCc3nc[nH]c3C2)c2ccccc21 [RAMOSETRON] |  |  | > 30 |  |  |  | > 30
30 | CN(CCOc1ccc(CC2SC(=O)NC2=O)cc1)c1ccccn1 (stereo unspecified) [ROSIGLITAZONE] |  | > 10 |  | > 10 | > 10 | > 30 | 
31 | S=P(N1CC1)(N1CC1)N1CC1 [THIOTEPA] | > 30 |  |  |  |  |  | 
32 | C[C@]12C=CC(=O)C=C1CC[C@H]1[C@@H]3C[C@@H](O)[C@](O)(C(=O)CO)[C@@]3(C)C[C@H](O)[C@@]12F [TRIAMCINOLONE] |  |  | 0.0091 |  |  |  | 
33 | CC(C)C[C@H](NC(=O)[C@@H](O)[C@H](N)Cc1ccccc1)C(=O)O [UBENIMEX] |  |  | 20 |  |  |  | 
34 | CC(C)[C@H](N)C(=O)OCCOCn1cnc2c(=O)[nH]c(N)nc21 [VALACYCLOVIR] |  | > 10 | > 30 | > 10 | > 10 | > 30 | 
35 | COc1cc(C(=O)NS(=O)(=O)c2ccccc2C)ccc1Cc1cn(C)c2ccc(NC(=O)OC3CCCC3)cc12 [ZAFIRLUKAST] |  |  | 24.9 |  |  |  | 
36 | O=C1Cc2cc(CCN3CCN(c4nsc5ccccc45)CC3)c(Cl)cc2N1 [ZIPRASIDONE] |  | > 10 | > 30 | 0.0317 | 0.008 | > 30 | 
